# Assay results as given in patent publication US20250134889A1, “TARGETING IRE1 KINASE AND FMRP FOR PROPHYLAXIS, MANAGEMENT AND TREATMENT OF ATHEROSCLEROSIS” (CEDARS-SINAI MEDICAL CENTER, priority 2022, published 2025).
# System: atherosclerosis in Apoe-/- mice
# Test: Atherosclerosis in Apoe-/- mice fed WD
# Format: in vivo, mouse
# Method: FIGS. 6A-6J depict that IRE1 kinase inhibition alleviates atherosclerosis. (Data are mean±SEM; Mann Whitney U test. * P≤0.05, ** P≤0.01, *** P≤0.001.) • 6A. Atherosclerosis experiment design in Apoe^−/− mice were fed with WD (12 weeks) and injected with vehicle (DMSO) or AMG-18 (30 mg/kg) once a day in the last 4 weeks of WD. • 6B. Lesion area calculated from en face aorta, stained with ORO (n=5; Scale bar=5 mm). • 6C. Total plaque area was calculated from H&E-stained aortic root sections (n=5; Scale bar=300 μm). • 6D. Foam cell area was calculated from ORO-stained aortic root sections (n=5; Scale bar=300 μm). • 6E. Necrotic area was calculated from H&E-stained aortic root sections (n=5; Scale bar=100 μm). • 6F. Atherosclerosis experiment design in Apoe^−/− mice were fed with WD (12 weeks) and injected with vehicle (DMSO) or AMG-18 (30 mg/kg) twice a day in the last 4 weeks of WD. • 6G. Lesion area calculated from en face aorta, stained with ORO (n=6; Scale bar=5 mm). • 6H. Total plaque area was calculated from H&E-stained aortic root sections (n=5; Scale bar=300 μm). • 6I. Foam cell area was calculated from ORO-stained aortic root sections (n=5; Scale bar=300 μm). • 6J. Necrotic area was calculated from H&E-stained aortic root sections (n=5; Scale bar=100 μm).
# FIGS. 6K-6T depict: (Data are mean±SEM; Mann Whitney U test. * P≤0.05, ** P≤0.01, *** P≤0.001.) • 6K. The ratio of mouse weight at the beginning of the experiment over the weight at the end of the experiment in FIG. 6A (n=5). • 6L-6N. Plasma measurements for (6L) glucose (n=5) and (6M) cholesterol (n=5) from mice in FIG. 6A. (6N) Abundance of B cells, T cells and monocytes in the peripheral blood as % of total CD45+ cells from the vehicle (DMSO) or AMG-18 (30 mg/kg) once a day injected mice in FIG. 6A (n=5). • 6O. Protein lysates of liver from mice in FIG. 6A. Proteins were analyzed by western blotting using specific antibodies for pIRE1 and β-Actin (n=5). • 6P. The ratio of mouse weight at the beginning of the experiment over the weight at the end of the experiment in FIG. 6F (n=6). • 6Q-6R. Plasma measurements for (6Q) glucose (n=6) and (6R) cholesterol (n=6) from FIG. 6F. • 6S-6T. Protein lysates of (6S) thioglycolate-elicited PM and (6T) liver from mice in FIG. 6F. Proteins were analyzed by western blotting using specific antibodies for pIRE1 and β-Actin (n=6).
# Mice studies and treatments: C57BL/6 (WT, Fmr1^+/+), Fmr1^−/− and Apolipoprotein E-deficient (Apoe^−/−) mice were purchased from Jackson Laboratory. IRE1 conditional knock out (Ire1α^flox/flox) mice were a kind gift from Dr. Takao Iwawaki (Kanazawa Medical University, Japan) and characterized before (Iwawaki et al, 2009). […] Fmr1 conditional knock out (Fmr1^flox/flox) mice were a kind gift from dr. David Nelson. Fmr1^flox/flox mice were inter-crossed with LysM^cre mice purchased from Jackson Lab (004781) to obtain myeloid Fmr1-deficient (myFmr1^−/−) mice. Starting at 8 weeks of age, Fmr1^−/−, Fmr1^−/−, myFmr1/or myFmr1^−/− mice were injected with 1×10^10 AAV_PCSK9 (AAV8-D377Y-mPCSK9, Vector BiolabsAAV-268246) via tail vein, then fed with normal chow or high cholesterol/high fat atherosclerotic mouse diet from Envigo (TD.88137) for 6 to 16 weeks. Apoe^−/− mice were fed with WD (12 weeks) and intraperitoneally injected with vehicle (DMSO) or AMG-18 (30 mg/kg) once or twice a day in the last 4 weeks of WD. C57BL/6 were injected with Tunicamycin (TM, 1 mg/kg) and with AMG-18 (30 mg/kg) or vehicle (DMSO) in 20% vol/vol Cremophor EL saline solution. 8 hours later peritoneal macrophages were isolated by thioglycolate elicitation for further analysis. Mice were kept under specific pathogen-free conditions with food and water ad libititum. Both female and male mice were used for experiments. […]
# [1] = 30 mg/kg once daily, last 4 weeks of 12 weeks WD
# [2] = 30 mg/kg twice daily, last 4 weeks of 12 weeks WD
structure (smiles),measurement,setting,value
Cc1ccc2c(NS(=O)(=O)c3ccccc3Cl)cccc2c1Oc1ncccc1-c1ccnc(N[C@H]2CCCNC2)n1 [AMG-18],aortic root lesion area,[1],not different
same,atherosclerotic lesions in en face aorta preparations,[1],decrease
same,body weight,[1],no significant differences
same,foam cell area,[1],significantly decreased
same,necrotic core area,[1],significantly decreased
same,number of circulating immune cells,[1],no significant differences
same,IRE1 autophosphorylation (target engagement),"30 mg/kg once daily, liver lysates",reduced
same,aortic root lesion area,[2],did not alter
same,atherosclerotic lesions in en face aorta preparations,[2],significant decrease
same,body weight ratio,[2],decrease
same,foam cell area,[2],significantly decreased
same,necrotic core area,[2],significantly decreased
same,IRE1 autophosphorylation (target engagement),"30 mg/kg twice daily, PM and liver lysates",reduced
